Test results as given in patent publication US20230001083A1, “ACTUATABLE DEVICE FOR PULSATILE DRUG DELIVERY” (Massachusetts Institute of Technology, priority 2019, published 2023).
Like-named read-outs stand apart in the source and are kept apart here.

What was measured:
[1] = Stability of drug formulation stored in the pump at 37° C.; assay type: physicochemical; conditions: stored in the pump at 37° C. for 4 weeks
[2] = In vivo pharmacokinetics of lisinopril, pump versus subcutaneous injection; conditions: for Cmax: plasma, read-out: maximum plasma concentration (Cmax)
Experimental: The time taken to reach the Cmax (Tmax) was 30 min in both groups. […] Drug leakage in the implanted pump was not detected during the non-actuation periods over a 28-day period.

Cmax ([2]; other: implanted pump, Pump-lisinopril group)	Cmax ([2]; sc, Inj-lisinopril group (subcutaneous injection))	area under the curve of plasma lisinopril concentration versus time (AUC) ([2]; pump group)	area under the curve of plasma lisinopril concentration versus time (AUC) ([2]; subcutaneous injection group)	Structure (SMILES)	stability of formulation in the pump [1]
–	–	–	–	CC(C)C[C@H]1C(=O)N2CCC[C@H]2[C@]2(O)O[C@](NC(=O)[C@@H]3C=C4c5cccc6[nH]c(Br)c(c56)C[C@H]4N(C)C3)(C(C)C)C(=O)N12 [bromocriptine]	stable without apparent denaturation
394 ± 83.2 ng/mL	323 ± 64.7 ng/mL	25335.5 ± 7640.9 ng·min/mL	24484.5 ± 5643.8 ng·min/mL	NCCCC[C@H](N[C@@H](CCc1ccccc1)C(=O)O)C(=O)N1CCC[C@H]1C(=O)O [lisinopril]	–
